Assay: xn = mol fraction of the nth substance listed

Clc1cccc2ccccc12 + Cc1ccc(C)cc1
viscosity [mPa·s], 101.33 kPa
Details	x1 = 0.0966	x1 = 0.1961	x1 = 0.2964	x1 = 0.3991	x1 = 0.4981	x1 = 0.597	x1 = 0.7003	x1 = 0.7974	x1 = 0.8991
298.15 K	0.635	0.737	0.847	1.002	1.16	1.36	1.614	1.899	2.294
303.15 K	0.596	0.687	0.789	0.926	1.074	1.25	1.475	1.723	2.072
308.15 K	0.562	0.644	0.738	0.863	0.997	1.158	1.357	1.576	1.882

Clc1ccccc1 + Cc1cccc(C)c1
101 kPa
Details	viscosity [mPa·s]
293.15 K, x1 = 0.1317	0.622
293.15 K, x1 = 0.2304	0.64
293.15 K, x1 = 0.3342	0.658
293.15 K, x1 = 0.4457	0.675
293.15 K, x1 = 0.5734	0.692
293.15 K, x1 = 0.6411	0.7
293.15 K, x1 = 0.7297	0.715
293.15 K, x1 = 0.8241	0.725
293.15 K, x1 = 0.9089	0.737
298.15 K, x1 = 0.115	0.587
298.15 K, x1 = 0.2331	0.605
298.15 K, x1 = 0.3319	0.621
298.15 K, x1 = 0.465	0.641
298.15 K, x1 = 0.565	0.655
298.15 K, x1 = 0.6929	0.671
298.15 K, x1 = 0.7812	0.685
298.15 K, x1 = 0.9072	0.697
303.15 K, x1 = 0.1144	0.55
303.15 K, x1 = 0.2301	0.571
303.15 K, x1 = 0.3415	0.585
303.15 K, x1 = 0.4598	0.605
303.15 K, x1 = 0.562	0.615
303.15 K, x1 = 0.6931	0.63
303.15 K, x1 = 0.8136	0.645
303.15 K, x1 = 0.904	0.651
308.15 K, x2 = 0.0886	0.661
308.15 K, x2 = 0.2076	0.6411
308.15 K, x2 = 0.3076	0.6254
308.15 K, x2 = 0.4147	0.6081
308.15 K, x2 = 0.5146	0.5927
308.15 K, x2 = 0.6138	0.578
308.15 K, x2 = 0.715	0.562
308.15 K, x2 = 0.8146	0.5474
308.15 K, x2 = 0.9338	0.5309
313.15 K, x2 = 0.0886	0.6235
313.15 K, x2 = 0.2076	0.6053
313.15 K, x2 = 0.3076	0.5896
313.15 K, x2 = 0.4147	0.5741
313.15 K, x2 = 0.5146	0.5604
313.15 K, x2 = 0.6138	0.5458
313.15 K, x2 = 0.715	0.5302
313.15 K, x2 = 0.8146	0.5163
313.15 K, x2 = 0.9338	0.5007

CCCCn1cc[n+](C)c1.F[P-](F)(F)(F)(F)F + Cc1ccccc1
Details	viscosity [mPa·s]
310.65 K, 101 kPa, x1 = 0.8	31.65

CCc1ccccc1 + Cc1ccccc1
Details	viscosity [mPa·s]
293.15 K, 101.33 kPa, x2 = 0.1809	0.652
293.15 K, 101.33 kPa, x2 = 0.3695	0.636
293.15 K, 101.33 kPa, x2 = 0.5187	0.623
293.15 K, 101.33 kPa, x2 = 0.6606	0.611
293.15 K, 101.33 kPa, x2 = 0.8474	0.597
298 K, 101 kPa, x2 = 0.1175	0.6248
298 K, 101 kPa, x2 = 0.2654	0.6174
298 K, 101 kPa, x2 = 0.4661	0.6001
298 K, 101 kPa, x2 = 0.5586	0.5944
298 K, 101 kPa, x2 = 0.6327	0.5864
298 K, 101 kPa, x2 = 0.8164	0.5675
298 K, 101 kPa, x2 = 0.9082	0.5576
298 K, 101 kPa, x2 = 0.9658	0.5598
298.15 K, 101.3 kPa, x2 = 0.1427	0.6196
298.15 K, 101.3 kPa, x2 = 0.2444	0.609
298.15 K, 101.3 kPa, x2 = 0.3777	0.5992
298.15 K, 101.3 kPa, x2 = 0.4928	0.5905
298.15 K, 101.3 kPa, x2 = 0.5425	0.5867
298.15 K, 101.3 kPa, x2 = 0.6355	0.5789
298.15 K, 101.3 kPa, x2 = 0.7353	0.5716
298.15 K, 101.3 kPa, x2 = 0.8573	0.5614
298.15 K, 101.3 kPa, x2 = 0.9453	0.5549
298.15 K, 101.33 kPa, x2 = 0.1308	0.623
298.15 K, 101.33 kPa, x2 = 0.2529	0.616
298.15 K, 101.33 kPa, x2 = 0.3685	0.604
298.15 K, 101.33 kPa, x2 = 0.4784	0.592
298.15 K, 101.33 kPa, x2 = 0.6663	0.58
298.15 K, 101.33 kPa, x2 = 0.8024	0.568
298.15 K, 101.33 kPa, x2 = 0.9209	0.56
303.15 K, 101.3 kPa, x2 = 0.0366	0.5902
303.15 K, 101.3 kPa, x2 = 0.1427	0.5808
303.15 K, 101.3 kPa, x2 = 0.2444	0.5729
303.15 K, 101.3 kPa, x2 = 0.3777	0.5639
303.15 K, 101.3 kPa, x2 = 0.4928	0.5556
303.15 K, 101.3 kPa, x2 = 0.5425	0.5522
303.15 K, 101.3 kPa, x2 = 0.6355	0.545
303.15 K, 101.3 kPa, x2 = 0.7353	0.5371
303.15 K, 101.3 kPa, x2 = 0.8573	0.528
303.15 K, 101.3 kPa, x2 = 0.9453	0.5223
303.15 K, 101.33 kPa, x2 = 0.1809	0.581
303.15 K, 101.33 kPa, x2 = 0.3695	0.565
303.15 K, 101.33 kPa, x2 = 0.5187	0.554
303.15 K, 101.33 kPa, x2 = 0.6606	0.546
303.15 K, 101.33 kPa, x2 = 0.8474	0.533
313.15 K, 101.33 kPa, x2 = 0.1809	0.52
313.15 K, 101.33 kPa, x2 = 0.3695	0.505
313.15 K, 101.33 kPa, x2 = 0.5187	0.496
313.15 K, 101.33 kPa, x2 = 0.6606	0.49
313.15 K, 101.33 kPa, x2 = 0.8474	0.479
323.15 K, 101.33 kPa, x2 = 0.1809	0.46
323.15 K, 101.33 kPa, x2 = 0.3695	0.459
323.15 K, 101.33 kPa, x2 = 0.5187	0.447
323.15 K, 101.33 kPa, x2 = 0.6606	0.443
323.15 K, 101.33 kPa, x2 = 0.8474	0.43

COC(C)(C)C + Cc1ccccc1
298.15 K, 101 kPa
Details	viscosity [mPa·s]
x1 = 0.05	0.541
x1 = 0.1	0.528
x1 = 0.2001	0.505
x1 = 0.3002	0.479
x1 = 0.4001	0.458
x1 = 0.5001	0.438
x1 = 0.6001	0.419
x1 = 0.6998	0.398
x1 = 0.8	0.383
x1 = 0.8999	0.372
x1 = 0.9502	0.365

Clc1cccc2ccccc12 + Cc1ccccc1
viscosity [mPa·s], 101.33 kPa
Details	x1 = 0.0995	x1 = 0.1995	x1 = 0.3037	x1 = 0.3973	x1 = 0.4962	x1 = 0.597	x1 = 0.6945	x1 = 0.7972	x1 = 0.8918
298.15 K	0.596	0.711	0.838	0.979	1.16	1.357	1.614	1.941	2.321
303.15 K	0.561	0.665	0.788	0.91	1.074	1.249	1.484	1.764	2.091
308.15 K	0.529	0.626	0.727	0.849	0.995	1.153	1.361	1.616	1.88

Clc1ccccc1 + Cc1ccccc1C
101 kPa
Details	viscosity [mPa·s]
293.15 K, x1 = 0.1217	0.755
293.15 K, x1 = 0.2237	0.76
293.15 K, x1 = 0.4305	0.759
293.15 K, x1 = 0.5325	0.753
293.15 K, x1 = 0.6305	0.76
293.15 K, x1 = 0.7288	0.755
293.15 K, x1 = 0.8295	0.756
293.15 K, x1 = 0.9051	0.75
298.15 K, x1 = 0.1005	0.712
298.15 K, x1 = 0.2307	0.708
298.15 K, x1 = 0.3108	0.704
298.15 K, x1 = 0.4337	0.706
298.15 K, x1 = 0.5454	0.705
298.15 K, x1 = 0.6079	0.705
298.15 K, x1 = 0.7762	0.706
298.15 K, x1 = 0.8807	0.705
303.15 K, x1 = 0.1214	0.66
303.15 K, x1 = 0.2389	0.666
303.15 K, x1 = 0.3117	0.653
303.15 K, x1 = 0.4128	0.657
303.15 K, x1 = 0.5674	0.653
303.15 K, x1 = 0.6882	0.661
303.15 K, x1 = 0.7891	0.661
303.15 K, x1 = 0.9156	0.66

COCCOCCOCCOCCOC + ClC(Cl)(Cl)Cl
298.15 K, 101 kPa
Details	viscosity [mPa·s]
x1 = 0.0127	0.966
x1 = 0.0282	1.01
x1 = 0.0629	1.122
x1 = 0.1168	1.311
x1 = 0.1932	1.562
x1 = 0.2437	1.723
x1 = 0.2943	1.888
x1 = 0.3592	2.081
x1 = 0.3669	2.102
x1 = 0.4164	2.242
x1 = 0.4414	2.319
x1 = 0.511	2.487
x1 = 0.5854	2.656
x1 = 0.6215	2.732
x1 = 0.6944	2.874
x1 = 0.7318	2.94
x1 = 0.7968	3.067
x1 = 0.8566	3.16
x2 = 0.0114	3.287

CCCCn1cc[n+](C)c1.F[P-](F)(F)(F)(F)F + ClC(Cl)Cl
Details	viscosity [mPa·s]
298.15 K, 101 kPa, x2 = 0.0857	195

COCCOCCOCCOCCOC + ClC(Cl)Cl
298.15 K, 101 kPa
Details	viscosity [mPa·s]
x1 = 0.0305	0.671
x1 = 0.06	0.81
x1 = 0.0813	0.921
x1 = 0.118	1.124
x1 = 0.1876	1.492
x1 = 0.2354	1.766
x1 = 0.2657	1.91
x1 = 0.2957	2.04
x1 = 0.35	2.276
x1 = 0.4029	2.413
x1 = 0.4429	2.521
x1 = 0.5093	2.676
x1 = 0.5445	2.745
x1 = 0.6146	2.883
x1 = 0.6452	2.925
x1 = 0.7142	3.035
x1 = 0.7593	3.083
x1 = 0.8142	3.141
x1 = 0.88	3.227
x1 = 0.9225	3.252
